According to US20070238757A1, “NOVEL TREATMENT” (SmithKline Beecham p.l.c., priority 2000, published 2007):

System: rat primary hippocampal neurons
Test: Neurite outgrowth assay in primary hippocampal neurons
Format: cell-based
Details: 48 hours, FIG. 2
Procedure: The hippocampi of gestational day 18 rat embryos were dissected out, incubated in trypsin (0.08%, 30 min at 37° C.) and dissociated mechanically (Skaper et al., 19990). Hippocampal cells were resuspended in neurobasal medium supplemented with B27, anti-oxidants, 1 mM glutamine, 25 μM glutamate, 1 mM pyruvate, +/−Compound 1 (10 nM-5 μM) or vehicle (DMSO) control.
For outgrowth assays, cells were plated at a density of 3000 cells/well into 96 well dishes that had previously been coated with poly-D-lysine followed by 10% FCS. For RNA isolation, cells were plated at 1×10^6 cells/well into a 35 mm tissue culture dish that had previously been coated with poly-D-lysine followed by 10% FCS.
Compound (I) was solubilised in DMSO and added to culture medium at time of cell plating at a dilution of 1:1000. Vehicle only (1:1000) was added to culture medium of untreated controls. […] Assays were quantified using a KS300 image analysis system (Imaging Associates, UK). For each cell measured, the length from the edge of the cell to the end of the longest neurite was measured for 100 cells/well for each treatment in triplicate. […] Results are expressed as a percentage of the length of neurites of cells treated with vehicle alone.
# Compound (I) at 0.01 and 0.05 μM has been analysed in one experiment only (n=3)

SMILES: CN(CCOc1ccc(CC2SC(=O)NC2=O)cc1)c1ccccn1 (centres unmarked) [Compound (I), 5-(4-[2-(N-methyl-N-(2-pyridyl)amino)ethoxy]benzyl)-2,4-thiazolidinedione]
- neurite outgrowth (effect in words) (10 nM-5 μM added at time of cell plating): increases neurite outgrowth in rat primary hippocampal neurons in a dose dependant manner
- increase of neurite outgrowth over untreated controls (Compound at 100 nM, length of longest neurite relative to cells treated with vehicle (DMSO) alone): approx. 50%
